Laboratory results reported in US20060057669A1, “Inactive transcription factor tif-ia and uses thereof” (priority 2002, published 2006).

Test system: HEK293T cells
Assay: Quantitative fluorimetric viability assay with calcein-AM
Format: cell-based
Conditions: 24, 36, 48 and 60 hr after transfection; 2 μM calcein-AM

TIF-IA: wild-type human transcription initiation factor TIF-IA, accession No. AJ272050
cellular growth rate by calcein-AM staining: did not affect cell viability and growth
